US20030224470A1, “Method of diagnosing statin myopathy” (priority 2002, published 2003)

Key:
[1] = Clinical muscle symptoms during statin therapy; type: in vivo, patients
Source text: (§1) The association of increased levels of 3MGA with statin myopathy was discovered in a study of four patients identified among the first 20 patients randomly assigned in an ongoing, unfunded, doubleblinded, crossover clinical trial that had been approved by an investigational review board. Patients who had muscle symptoms during statin therapy that resolved when they were not receiving statins for 2 weeks were recruited from a clinical research group. Eligible patients had to have normal creatine kinase levels while they were experiencing symptoms. End points were 1) whether patients could accurately identify blinded statin therapy, 2) standard measures of functional capacity and muscle strength, 3) standard measures of biochemical properties of blood, urine and muscle specimens and 4) analysis of muscle biopsy for pathology. The muscular strength tests during both placebo use and statin therapy included hip abduction and flexion measured by Nicholas Manual Muscle Tester (Lafayette Instrument Co., Lafayette, Ind.) The standard measures for biochemical alterations included blood, urine and muscle biopsy analysis for levels of endogenous factors and drug. Analysis of muscle biopsy for pathology included general histology of the samples and detection of various markers involved in metabolism.

[2] = Muscle biopsy pathology (histology, metabolic markers); type: in vivo, patients; settings: Patient 3; during atorvastatin therapy
Source text: as §1, with “metabolism. […]” for “metabolism.”

[3] = Serum creatine kinase level during statin therapy; type: in vivo, patients; settings: normal range 0-3.26 μkat/L
Source text: as §1
The creatine kinase level remained normal in these patients every time they became myopathic both before and during the trial. The presence of a normal creatine kinase level has previously been used to argue against myopathy in patients with muscle symptoms during statin therapy.

[4] = Muscular strength tests: hip abduction and flexion, Nicholas Manual Muscle Tester; type: in vivo, patients
Source text: as §1

[5] = Statin level in patients; type: in vivo
Source text: as §1
All four patients in the study had normal statin levels (TABLE 1).

[6] = Urine organic acid analysis for 3-methylglutaconic acid (3MGA); type: in vivo, patients
[7] = Patient 1, 4 years of simvastatin therapy, brief trial of atorvastatin
[8] = Patient 4, atorvastatin 10 mg/d
[9] = Patient 3, Atorvastatin 20 mg/d
[10] = Patient 1, Cerivistatin 0.4 mg/d listed first
[11] = Patient 2, lovastatin 40 mg/d, simvastatin added to niacin

For `CC(C)c1c(C(=O)Nc2ccccc2)c(-c2ccccc2)c(-c2ccc(F)cc2)n1CC[C@@H](O)C[C@@H](O)CC(=O)O` [Atorvastatin], the “Muscle symptoms during therapy” value [1, 7] was “Symptoms did not change”, the “Muscle symptoms during therapy” value ([1]; Patient 3, atorvastatin 20 mg/d for 2 years) was “aching and weakness of the shoulder, hip, and thigh” and the “Muscle symptoms during therapy” value [1, 8] was “leg aches when climbing stairs”. For the same compound, the “Time to onset of leg aches” value [1, 8] was no more than 2 weeks, the “Muscle biopsy findings during therapy” value [2] was “increased lipid droplets, ragged red fibers, and cytochrome oxidase—negative muscle fibers” and the “Creatine Kinase Level during Statin Therapy” value [3, 9] was 2.30 μkat/L. The “Creatine Kinase Level during Statin Therapy” value ([3]; Patient 4, Atorvastatin 10 mg/d) was 1.39 μkat/L, the “Hip Abduction (Strength) On Statin” value [4, 9] was 6.3 kg and the “Hip Flexion (Strength) On Statin” value [4, 9] was 14.3 kg. The “Hip Abduction (Strength) On Statin” value [4, 8] was 12.9 kg, the “Hip Flexion (Strength) On Statin” value [4, 8] was 24.1 kg and the “Statin Level” value [5, 9] was 10.9 (Ator- ngEq/cm^3.

In the case of `COCc1c(C(C)C)nc(C(C)C)c(/C=C/[C@@H](O)C[C@@H](O)CC(=O)O)c1-c1ccc(F)cc1` [Cerivistatin], the “Creatine Kinase Level during Statin Therapy” value ([3]; Patient 1) is reported as 0.63 μkat/L, the “Hip Abduction (Strength) On Statin” value [4, 10] is reported as 4.1 kg and the “Hip Flexion (Strength) On Statin” value [4, 10] is reported as 8.0 kg. For the same compound, the “3-Methylglutaconic acid levels On Statin” value ([6]; Patient 1, normal range 0-9 mmol/mol creatinine) was 21 mmol/mol.

With `CCC(C)(C)C(=O)O[C@H]1C[C@@H](C)C=C2C=C[C@H](C)[C@H](CC[C@@H]3C[C@@H](O)CC(=O)O3)[C@H]21` [Simvastatin] the “Muscle symptoms during therapy” value [1, 7] was “muscle aches and decreased exercise tolerance”, the “Muscle symptoms during therapy” value [1, 11] was “muscle aches, weakness, and shortness of breath with exertion” and the “Creatine Kinase Level during Statin Therapy” value ([3]; Patient 2, Simvastatin 40 mg/d) was 0.73 μkat/L. For the same compound, the “Hip Abduction (Strength) On Statin” value ([4]; Patient 2, Simvastatin 40 mg/d) was 11.6 kg, the “Hip Flexion (Strength) On Statin” value ([4]; Patient 2, Simvastatin 40 mg/d) was 9.6 kg and the “3-Methylglutaconic acid levels On Statin” value ([6]; Patient 2, Simvastatin 40 mg/d, normal range 0-9 mmol/mol creatinine) was 11 mmol/mol. For the same compound, the “Statin Level” value ([5]; Patient 1) was 1.4 (Sim- ngEq/cm^3 and the “Statin Level” value ([5]; Patient 2, Simvastatin 40 mg/d) was 16.3 (Sim- ngEq/cm^3.

With `CC[C@H](C)C(=O)O[C@H]1C[C@@H](C)C=C2C=C[C@H](C)[C@H](CC[C@@H]3C[C@@H](O)CC(=O)O3)[C@H]21` [lovastatin] the “Muscle symptoms during therapy” value [1, 11] was “muscle pains and weakness”.
